From patent US9656990B2, “Cathepsin cysteine protease inhibitors” (Merck Sharp & Dohme Corp., priority 2014, dated 2017)

Tests used:
human cathepsin K = human cathepsin K (UniProt P43236, Y175D/V274L, species not given); assay: Cathepsin K Assay; format: biochemical; conditions: IP from dose response curve; Z-Leu-Arg-AMC substrate, pH 5.5; read-out: hrbCat K (IP (nM))
human cathepsin F = target: T1, human cathepsin F (Homo sapiens, UniProt Q9UBX1); assay: Cathepsin F Assay; format: biochemical; conditions: IP from dose response curve; Z-Phe-Arg-AMC substrate, pH 5.5; read-out: hCat F (IP (nM))
T1 sequence (Q9UBX1 271-484): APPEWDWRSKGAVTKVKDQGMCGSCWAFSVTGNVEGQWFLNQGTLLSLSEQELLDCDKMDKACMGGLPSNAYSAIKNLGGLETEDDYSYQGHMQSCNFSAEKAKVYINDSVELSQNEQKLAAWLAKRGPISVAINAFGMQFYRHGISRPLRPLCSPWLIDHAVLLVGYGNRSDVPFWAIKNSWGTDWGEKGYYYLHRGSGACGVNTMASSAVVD
In short: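 Human cathepsin F (10 nM) preincubated 15 min at room temperature with compounds in 50 mM MES pH 5.5, 2.5 mM EDTA, 2.5 mM DTT, 10% DMSO. Z-Phe-Arg-AMC (8 μM) added; AMC release read by fluorescence (Ex 360/Em 460 nm) over 20 min, inhibition fit to dose-response model.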

| Compound | IC50 (human cathepsin K) | IC50 (human cathepsin F) |
| --- | --- | --- |
| N#CC1(NC(=O)[C@@H]2CCCC[C@H]2c2nn(-c3ccc(F)cc3)cc2-c2ccc(N3CCS(=N)(=O)CC3)cc2)CC1 [Example 129, (1R,2R)-N-(1-cyanocyclopropyl)-2-(1-(4-fluorophenyl)-4-(4-(1-imino-1-oxidothiomorpholino)phenyl)-1H-pyrazol-3-yl)cyclohexanecarboxamide] | 1.84 nM | 932 nM |
| N#CCNC(=O)[C@@H]1CC(F)(F)CC[C@H]1c1nn(-c2ccc(F)cc2)cc1-c1ccc(N2CCS(=O)(=O)CC2)cc1 [Example 81, (1R,2R)-N-(cyanomethyl)-2-(4-(4-(1,1-dioxidothiomorpholino)phen-yl)-1-(4-fluorophenyl)-1H-pyrazol-3-yl)-5,5-difluorocyclohexanecarbox-amide] | 0.37 nM | 11 nM |
| N#CC1(NC(=O)[C@@H]2CCCC[C@H]2c2nn(-c3ccc(OC(F)F)cc3)cc2-c2ccc(N3CCS(=O)(=O)CC3)cc2)CC1 [Example 111, (1R,2R)-N-(1-cyanocyclopropyl)-2-(1-(4-(difluoromethoxy)phenyl)-4-(4-(1,1-dioxidothiomorpholino)phen-yl)-1H-pyrazol-3-yl)cyclohexanecarboxamide] | 0.86 nM | 392 nM |
| CS(=O)(=O)N1CCN(C(=O)c2ccc(-c3cn(-c4ccc(F)cc4)nc3[C@@H]3CCCC[C@H]3C(=O)NC3(C#N)CC3)cc2)CC1 [Example 93, (1R,2R)-N-(1-cyanocyclopropyl)-2-(1-(4-fluorophenyl)-4-(4-(4-(methylsulfonyl)piperazine-1-carbonyl)phenyl)-1H-pyrazol-3-yl)cyclohexanecarboxamide] | 5.02 nM | 2350 nM |
| C[C@@H](C#N)NC(=O)[C@@H]1CC(F)(F)CC[C@H]1c1nn2ccccc2c1-c1ccc(N2CCS(=O)(=O)CC2)cc1 [Example 72, (1R,2R)-N-((S)-1-cyanoethyl)-2-(3-(4-(1,1-dioxidothiomorpholino)phen-yl)pyrazolo[1,5-a]pyridin-2-yl)-5,5-difluorocyclohexanecarbox-amide] | 2.66 nM | 230 nM |
| N#CC1(NC(=O)[C@@H]2C[C@@H](F)CC[C@H]2c2nn(-c3ncccc3F)cc2-c2ccc(N3CCS(=O)(=O)CC3)cc2)CC1 [Example 29, (1R,2R,5S)-N-(1-cyanocyclopropyl)-2-(4-(4-(1,1-dioxidothiomorpholino)phen-yl)-1-(3-fluoropyridin-2-yl)-1H-pyrazol-3-yl)-5-fluorocyclohexanecarboxamide] | 6.2 nM | 6780 nM |
| N#CC1(F)CCN(c2ccc(-c3cn(-c4ccc(F)cc4)nc3[C@@H]3CCCC[C@H]3C(=O)NC3(C#N)CC3)cc2)CC1 [Example 115, (1R,2R)-2-(4-(4-(4-cyano-4-fluoropiperidin-1-yl)phenyl)-1-(4-fluorophenyl)-1H-pyrazol-3-yl)-N-(1-cyanocyclopropyl)cyclohex-anecarboxamide] | 6.62 nM | 804 nM |
| N#CC1CCN(c2ccc(-c3cn(-c4ccc(F)cc4)nc3[C@@H]3CCCC[C@H]3C(=O)NC3(C#N)CC3)cc2)CC1 [Example 1, (1R,2R)—N-(1-Cyanocyclopropyl)-2-(4-(4-(4-cyanopiperidin-1-yl)phenyl)-1-(4-fluorophenyl)-1H-pyrazol-3-yl)cyclohexanecarboxamide] | 2.72 nM | 698 nM |
| CNC(=O)N1CC(c2ccc(-c3cn(-c4ccc(F)cc4)nc3[C@@H]3CCCC[C@H]3C(=O)NC3(C#N)CC3)cc2)C1 [Example 135, 3-(4-(3-((1R,2R)-2-((1-cyanocyclopropyl)carbamoyl)cyclohexyl)-1-(4-fluorophenyl)-1H-pyrazol-4-yl)phenyl)-N-methylazetidine-1-carboxamide] | 0.71 nM | 64 nM |
| N#CC1(NC(=O)[C@@H]2CCCC[C@H]2c2nn(-c3ccc(F)cc3)cc2-c2ccc(C(=O)N3CCOCC3)cc2)CC1 [Example 88, (1R,2R)-N-(1-cyanocyclopropyl)-2-(1-(4-fluorophenyl)-4-(4-(morpholine-4-carbonyl)phenyl)-1H-pyrazol-3-yl)cyclohexanecarboxamide] | 6.9 nM | 1010 nM |
